The results in this text go back to patent US20240392254A1, “CANCER MICROENVIRONMENT” (CARCINOTECH LTD, priority 2021, published 2024).

The subject of series [1] is bioprinted construct BB21-001. Kind of series: LDH release (LDH-Glo) cytotoxicity in bioprinted breast cancer construct. The class given is cell-based, human. As to conditions: 0.2 and 1 μM doxorubicin, 72 h time-point. The method, then:
The 15-day old bioprinted constructs were treated with 0.2 and 1 μM Doxorubicin (Doxo). Medium samples were collected at 24, 48 and 72 h time points to assess the Lactate Dehydrogenase (LDH) release, which is a marker of cytotoxicity. LDH-Glo assay was used. Data are presented as means±SD, n=3.
Cytotoxicity of doxorubicin was also assessed by LDH release detection.

For series [2], the system named is bioprinted construct BB21-001 (MDA-MB-231, hMAds, CAF, BCSC). Kind of series: Doxorubicin treatment of single-cell bioprinted breast cancer construct, RealTime-Glo MT viability. The class given is cell-based, human. The method, then:
The 15-day old bioprinted constructs were treated with 0.2 and 1 μM Doxorubicin (Doxo) for 72 h. Cell viability was assessed using RealTime-Glo MT before treatment (day 0) and after 72 h of treatment. To assess the doxorubicin effects after 72 h, a percentage of day 0 viability was calculated for each construct. Statistically significant differences were determined using one-way ANOVA with Tukey's post-hoc test, and indicated as follows: *** p≤0.001, **** p≤0.0001, ns—not significant.
Each cell line (MDA-MB-231, hMAds, CAF and BCSC) was harvested, counted and then the required number of cells was transferred into a 15 ml Falcone tube. The cells were spun down then resuspended into 20 μL of complete 3D Tumorsphere Medium XF (obtained from PromCell®) and loaded into a syringe preloaded with 200 μL of Laminink 411 (cells corresponded to 10% of the bioink volume). Then mixed for 550 times. The homogeneous mixture was transferred to a syringe and then set to bioprint (the extrusion volume of each bioprint being set to 3 uL (approximately 50000 cells per droplet).

In series [3] the test system is MDA-MB-231 triple negative breast cancer cells. Kind of series: Doxorubicin dose-response in 2D cell culture. To be noted: for cell viability (in comparison to an untreated control sample): 2D cell culture.
Experimental: The MDA-MB-231 cells were cultured in Leibovitz's L-15 Medium (ATCC®) and fetal bovine serum was added to a final concentration of 10%, and in accordance with the general procedure outlined in MDA-MB-231 (HTB-26™) Product sheet from ATCC® (https://www.atcc.org/products/htb-26).
Cells were exposed to a range of doxorubicin concentrations for 72 hours and sensitivity to this drug was evaluated by determining a concentration that kills 50% of the cells (IC50).
Series [4] relates to glioblastoma cancer stem cells (GBM CSC). Description: Cisplatin dose-response in 2D culture, CellTiter-Glo viability. The class given is cell-based. How it is done:
(§1) Cell cultures were exposed to the indicated cisplatin concentrations for 72 h. Cell viability was then assessed using the luminescence-based CellTiter-Glo Assay. Data are presented as means±SEM (n≥2). For 2D cell cultures and 3D tumorspheres FIGS. 7A and 7B) dose-response curves were fitted (nonlinear regression) to calculate the IC50 values (see: Table 1 in the examples section). In the 3D bioprint experiment (FIG. 7B) statistically significant difference between untreated control and cisplatin treatment was determined using an unpaired t-test (**** p≤0.0001).
(§2) Both cell lines were deemed sensitive to cisplatin, however, higher drug doses were required to initiate death of cancer stem cells.

For series [5], the system named is U-87 MG glioblastoma cell line. Described as above. The class given is cell-based. How it is done:
as §1, §2

Series [6] relates to 3D GBM bioprints (example B21_012). Description: Cisplatin treatment of 3D GBM bioprinted constructs, CellTiter-Glo viability. The class given is cell-based, human. The method, then: as §1
Bioprinted constructs were treated with 50, 100, 200, or 400 μM cisplatin (CDDP) for 72 h. Viability was assessed using CellTiter-Glo assay.
Tumorspheres, obtained from a coculture of U87MG (60%), microglia HMC3 (28%), GBM-CAF (10%) and GBM-CSC (2%) after 14 days in 5×96-well round bottom low adhesion plates, were harvested by sedimenting in Falcon tube then transferred into a 1 ml syringe. The culture medium was eliminated by gravitation. The total volume of tumorsphere pellet was 50 μL. 270 μL of bioink Cellink Laminink 411 were transferred into another 1 ml syringe; a connector was used to link both syringes. Mixing the bioink and tumorspheres was done by pushes from one side to another. The homogenous mixture tumorspheres-bioink (˜320 μL) was transferred in 3 ml syringe preloaded with 1 mL start ink. […]

Series [7] has as its system 3D GBM tumorspheres (spheroids) from coculture of U-87 MG, GBM CSC, GBM CAF and microglia (HMC3). Description: Cisplatin dose-response in 3D GBM tumorspheres, CellTiter-Glo viability. The class given is cell-based. The method, then: as §1
In the next step, response to cisplatin was tested in 3D GBM spheroids (see FIG. 7B). […] Nevertheless, cisplatin was effective in 3D GBM tumourspheres (spheroids) as well.

Read-outs that look alike come from different tables or passages of the source. A value given as a limit tells only on which side of the number the result lay.

In the case of `COc1cccc2c1C(=O)c1c(O)c3c(c(O)c1C2=O)C[C@@](O)(C(=O)CO)C[C@@H]3O[C@H]1C[C@H](N)[C@H](O)[C@H](C)O1` [doxorubicin, Doxorubicin], in series [1], the “LDH release (cytotoxicity)” value is recorded as “increasing trend”. In series [2] (1.0 μM doxorubicin), the “effect on cell viability” value was “significantly reduces cell viability”. Also, in series [2] (Homo sapiens, MDA-MB-231, 0.2 μM doxorubicin, 72 h, 15-day old construct, read-out: cell viability (in comparison to an untreated control sample)), the viability at 0.2 µM was about 84%. Moreover, in series [2] (Homo sapiens, MDA-MB-231, 1.0 μM doxorubicin, 72 h, 15-day old construct, read-out: cell viability (in comparison to an untreated control sample)), the viability at 1 µM is about 35%. Further, the “cell viability (in comparison to an untreated control sample)” value is about 40% in series [3] (0.2 μM doxorubicin) and under 14% in series [3] (1.0 μM doxorubicin). Half-maximal inhibition in series [3] (2D culture, 72 hours) (IC50) was put at 0.08 ± 0.02 µM.
Consider `N.N.[Cl][Pt][Cl]` [Cisplatin], for which the IC50 in series [4] (2D GBM CSC, 72 h, read-out: Cisplatin IC50 (Mean ± SEM)) is 20.1 ± 3.5 µM; in series [5] (2D U-87 MG, 72 h, read-out: Cisplatin IC50 (Mean ± SEM)), 12.9 ± 2.5 µM; in series [6] (3D Bioprinted tumour, 72 h, read-out: Cisplatin IC50) it was over 200 µM; in series [6] (printed construct, read-out: IC50 value), over 200 µM; in series [7] (3D spheroids (tumourspheres)), 111 µM. Besides, the sensitivity to cisplatin result was “sensitive” in series [4] (2D culture, 72 hours, higher doses required than for U-87 MG) and “sensitive” in series [5] (2D culture, 72 hours). Also, in series [7] (3D GBM tumourspheres), the effectiveness of cisplatin result is on record as “effective”.
